This is an account of results in US20130121994A1, “TRIAZOLOPYRIDINE DERIVATIVES” (BAYER INTELLECTUAL PROPERTY GMBH, priority 2009, published 2013).

A value given as a limit tells only on which side of the number the result lay.

In the assay the target is T1, human kinase Mps-1 (Homo sapiens, UniProt P33981).
T1 construct: N-terminally GST-tagged human full length recombinant Mps-1 kinase; GST (N); purchased Invitrogen, Karslruhe, Germany PV4071
T1 sequence (P33981 1-857): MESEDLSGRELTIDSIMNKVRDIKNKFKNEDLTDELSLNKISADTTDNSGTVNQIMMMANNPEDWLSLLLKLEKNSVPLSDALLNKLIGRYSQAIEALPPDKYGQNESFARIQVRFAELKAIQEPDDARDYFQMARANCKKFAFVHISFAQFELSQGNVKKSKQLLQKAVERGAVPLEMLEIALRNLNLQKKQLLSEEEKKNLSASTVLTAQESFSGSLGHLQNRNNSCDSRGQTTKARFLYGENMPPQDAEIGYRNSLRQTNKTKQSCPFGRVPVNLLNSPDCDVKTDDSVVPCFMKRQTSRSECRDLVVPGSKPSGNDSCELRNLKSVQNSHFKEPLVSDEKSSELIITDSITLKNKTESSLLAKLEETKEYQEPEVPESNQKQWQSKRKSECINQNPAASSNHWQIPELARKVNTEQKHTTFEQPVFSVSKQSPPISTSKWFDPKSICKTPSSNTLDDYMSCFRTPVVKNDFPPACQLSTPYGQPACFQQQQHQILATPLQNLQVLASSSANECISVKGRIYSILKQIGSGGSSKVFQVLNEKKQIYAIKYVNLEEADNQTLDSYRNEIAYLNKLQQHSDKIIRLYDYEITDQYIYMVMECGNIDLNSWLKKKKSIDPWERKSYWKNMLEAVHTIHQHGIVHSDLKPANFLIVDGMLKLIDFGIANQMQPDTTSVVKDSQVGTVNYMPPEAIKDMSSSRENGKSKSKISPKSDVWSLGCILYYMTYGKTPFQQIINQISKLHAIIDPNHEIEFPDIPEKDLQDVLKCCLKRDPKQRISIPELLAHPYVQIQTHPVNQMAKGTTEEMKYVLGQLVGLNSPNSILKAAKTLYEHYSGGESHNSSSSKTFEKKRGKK
In words: Mps-1 kinase assay (HTRF). The assay is classed as biochemical.
As for `CC(C)(C)NC(=O)c1cccc(-c2ccc3nc(Nc4ccccc4C#N)nn3c2)c1F` [Example 11.065, N-tert-butyl-3-{2-[(2-cyanophenyl)amino][1,2,4]triazolo[1,5-a]pyridin-6-yl}-2-fluorobenzamide], half-maximal inhibition (IC50) required 18.2 nM. That is a double-digit nanomolar value.

In the case of `CC(F)(F)CNC(=O)c1cccc(-c2ccc3nc(Nc4ccccc4C#N)nn3c2)c1F` [Example 11.066, 3-{2-[(2-cyanophenyl)amino][1,2,4]triazolo[1,5-a]pyridin-6-yl}-N-(2,2-difluoropropyl)-2-fluorobenzamide], the IC50 (in general, the midpoint of a concentration-inhibition curve) turned out to be 26.7 nM.

Turning to `N#Cc1ccccc1Nc1nc2ccc(-c3cccc(C(=O)NCCC(F)(F)F)c3F)cn2n1` [Example 11.067, 3-{2-[(2-cyanophenyl)amino][1,2,4]triazolo[1,5-a]pyridin-6-yl}-2-fluoro-N-(3,3,3-trifluoropropyl)benzamide], the concentration for half-maximal inhibition (IC50) came to 23.9 nM.

With `COCCNC(=O)c1cccc(-c2ccc3nc(Nc4ccccc4C#N)nn3c2)c1` [Example 11.068, 3-{2-[(2-cyanophenyl)amino][1,2,4]triazolo[1,5-a]pyridin-6-yl}-N-(2-methoxyethyl)benzamide], it took 24.7 nM to reach half-maximal inhibition (IC50).

The compound `N#Cc1ccccc1Nc1nc2ccc(-c3cccc(C(=O)NCC(F)F)c3F)cn2n1` [Example 11.069, 3-{2-[(2-cyanophenyl)amino][1,2,4]triazolo[1,5-a]pyridin-6-yl}-N-(2,2-difluoroethyl)-2-fluorobenzamide] had a 50% inhibitory concentration (IC50) of 34.2 nM.

`N#Cc1ccccc1Nc1nc2ccc(-c3cccc(C(=O)NCCO)c3)cn2n1` [Example 11.070, 3-{2-[(2-cyanophenyl)amino][1,2,4]triazolo[1,5-a]pyridin-6-yl}-N-(2-hydroxyethyl)benzamide]: it took 29.7 nM to reach half-maximal inhibition (IC50).

Compound `C[C@H](O)CNC(=O)c1cccc(-c2ccc3nc(Nc4ccccc4C#N)nn3c2)c1` [Example 11.071, 3-{2-[(2-cyanophenyl)amino][1,2,4]triazolo[1,5-a]pyridin-6-yl}-N-[(2S)-2-hydroxypropyl]benzamide] registered an IC50 of 36.9 nM.

In the case of `N#Cc1ccccc1Nc1nc2ccc(-c3cccc(C(=O)NCCF)c3F)cn2n1` [Example 11.072, 3-{2-[(2-cyanophenyl)amino][1,2,4]triazolo[1,5-a]pyridin-6-yl}-2-fluoro-N-(2-fluoroethyl)benzamide], the half-inhibitory concentration (IC50) is 42.2 nM.

Consider `N#Cc1ccccc1Nc1nc2ccc(-c3ccc(F)c(C(=O)O)c3)cn2n1` [Example 11.073, 5-{2-[(2-cyanophenyl)amino][1,2,4]triazolo[1,5-a]pyridin-6-yl}-2-fluorobenzoic acid], for which inhibition was half-maximal at 43.5 nM (IC50).

Take `N#Cc1ccccc1Nc1nc2ccc(-c3cc(F)cc(C(=O)O)c3)cn2n1` [Example 11.074, 3-{2-[(2-cyanophenyl)amino][1,2,4]triazolo[1,5-a]pyridin-6-yl}-5-fluorobenzoic acid]: the IC50 amounted to 170 nM.

`CCOC(=O)c1cc(F)cc(-c2ccc3nc(Nc4ccccc4C#N)nn3c2)c1` [Example 11.075, ethyl 3-{2-[(2-cyanophenyl)amino][1,2,4]triazolo[1,5-a]pyridin-6-yl}-5-fluorobenzoate] came in with an IC50 of 1980 nM.

Compound `CNC(=O)c1ccc(Nc2nc3ccc(-c4cccc(C(=O)NCC(C)(C)C)c4)cn3n2)c(OC)c1` [Example 11.076, 4-[(6-{3-[(2,2-dimethylpropyl)carbamoyl]phenyl}[1,2,4]tria-zolo[1,5-a]pyridin-2-yl)amino]-3-methoxy-N-methylbenzamide] returned an IC50 not above 1 nM.

As to `COc1cc(C(=O)NC(C)(C)C)ccc1Nc1nc2ccc(-c3cccc(C(=O)NCC(F)(F)F)c3)cn2n1` [Example 11.077, N-tert-butyl-3-methoxy-4-[(6-{3-[(2,2,2-trifluoroethyl)carbamoyl]phenyl}[1,2,4]triazolo [1,5-a]pyridin-2-yl)amino]benzamide], the half-inhibitory concentration (IC50) was not above 1 nM.

For the compound `COc1cc(C(=O)NCCS(C)(=O)=O)ccc1Nc1nc2ccc(-c3cccc(C(=O)NCC(C)(C)C)c3)cn2n1` [Example 11.078, 4-[(6-{3-[(2,2-dimethylpropyl)carbamoyl]phenyl}[1,2,4]tria-zolo[1,5-a]pyridin-2-yl)amino]-3-methoxy-N-[2-(methylsulfonyl)ethyl]benzamide], the half-inhibitory concentration (IC50) was not above 1 nM.

The compound `CCNC(=O)c1ccc(Nc2nc3ccc(-c4cccc(C(=O)NCC(C)(C)C)c4)cn3n2)c(OC)c1` [Example 11.079, 4-[(6-{3-[(2,2-dimethylpropyl)carbamoyl]phenyl}[1,2,4]tria-zolo[1,5-a]pyridin-2-yl)amino]-N-ethyl-3-methoxybenzamide] showed a half-inhibitory concentration (IC50) not above 1 nM.

In turn, `COc1cc(C(=O)NCCS(C)(=O)=O)ccc1Nc1nc2ccc(-c3cccc(C(=O)NCC(F)(F)F)c3)cn2n1` [Example 11.080, 3-methoxy-N-[2-(methylsulfonyl)ethyl]-4-[(6-{3-[(2,2,2-trifluoroethyl)carbamoyl]phenyl}[1,2,4]triazolo [1,5-a]pyridin-2-yl)amino]benzamide] came in with an IC50 not above 1 nM.

For the compound `CCNC(=O)c1ccc(Nc2nc3ccc(-c4cccc(C(=O)NCC(F)(F)F)c4)cn3n2)c(OC)c1` [Example 11.081, N-ethyl-3-methoxy-4-[(6-{3-[(2,2,2-trifluoroethyl)carbamoyl]phenyl}[1,2,4]triazolo [1,5-a]pyridin-2-yl)amino]benzamide], the half-inhibitory concentration (IC50) was not above 1 nM.

For `COc1cc(C(=O)NC(C)(C)C)ccc1Nc1nc2ccc(-c3cccc(C(=O)NCC(C)(C)C)c3)cn2n1` [Example 11.082, N-tert-butyl-4-[(6-{3-[(2,2-dimethylpropyl)carbamoyl]phenyl}[1,2,4]tria-zolo[1,5-a]pyridin-2-yl)amino]-3-methoxybenzamide], the half-maximal inhibitory concentration (IC50) is 1.23 nM.

Compound `CCNC(=O)c1ccc(Nc2nc3ccc(-c4cccc(C(=O)NCC(F)(F)C(F)(F)F)c4)cn3n2)c(OC)c1` [Example 11.083, N-ethyl-3-methoxy-4-[(6-{3-[(2,2,3,3,3-pentafluoropropyl)carbamoyl]phenyl}[1,2,4]triazolo[1,5-a]pyridin-2-yl)amino]benzamide] had an IC50 not above 1 nM.

For `COc1cc(C(=O)NCC(F)(F)F)ccc1Nc1nc2ccc(-c3cccc(C(=O)NCC(C)(C)C)c3)cn2n1` [Example 11.084, 4-[(6-{3-[(2,2-dimethylpropyl)carbamoyl]phenyl}[1,2,4]tria-zolo[1,5-a]pyridin-2-yl)amino]-3-methoxy-N-(2,2,2-trifluoroethyl)benzamide], the IC50 turned out to be 1.07 nM. In other words, the single-digit nanomolar range.

`CCOc1cc(C(=O)NCCS(C)(=O)=O)ccc1Nc1nc2ccc(-c3cccc(C(=O)NCC(C)(C)C)c3)cn2n1` [Example 11.085, 4-[(6-{3-[(2,2-dimethylpropyl)carbamoyl]phenyl}[1,2,4]tria-zolo[1,5-a]pyridin-2-yl)amino]-3-ethoxy-N-[2-(methylsulfonyl)ethyl]benzamide] came in with an IC50 not above 1 nM.

Compound `CCOc1cc(C(=O)NCCS(C)(=O)=O)ccc1Nc1nc2ccc(-c3cccc(C(=O)NCC(F)(F)F)c3)cn2n1` [Example 11.086, 3-ethoxy-N-[2-(methylsulfonyl)ethyl]-4-[(6-{3-[(2,2,2-trifluoroethyl)carbamoyl]phenyl}[1,2,4]triazolo [1,5-a]pyridin-2-yl)amino]benzamide] displayed an IC50 not above 1 nM.

`CCNC(=O)c1ccc(Nc2nc3ccc(-c4cccc(C(=O)NCC(C)(C)C)c4)cn3n2)c(OCC)c1` [Example 11.087, 4-[(6-{3-[(2,2-dimethylpropyl)carbamoyl]phenyl}[1,2,4]tria-zolo[1,5-a]pyridin-2-yl)amino]-3-ethoxy-N-ethylbenzamide] gave an IC50 not above 1 nM.
